Assay results as given in PubChem BioAssay (NCI).
Several values for one entry are separate records, joined by “and”; a condition that tells them apart may be missing. Identical values can stand only once.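 How tested: cells in 96-well plates exposed to compound for 48 hours at five concentrations. GI50 marks 50% less growth. The concentration for full growth arrest is given as TGI.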

Tested on: PC-3 prostate
Assay: inhibition of tumour cell growth, NCI panel, 48 h

| Compound | GI50 | TGI |
| --- | --- | --- |
| COC(=O)/C=C/c1cc(OC(C)=O)c2c(c1)[C@@H](C(=O)OC)[C@H](c1ccc(OC(C)=O)c(OC(C)=O)c1)O2 | 0.316 µM | 54.7 µM |

Tested on: RPMI-8226 leukemia
Assay: inhibition of tumour cell growth, NCI panel, 48 h

| Compound | GI50 | TGI |
| --- | --- | --- |
| CC[C@@H](c1ccc(O)c(O)c1)[C@@H](CC)c1ccc(O)c(O)c1 | 4.31 µM | 26.3 µM |
| O=C1OCC2=C1C(c1cccc(Br)c1)c1cc3c(cc1N2CCO)OCCO3 (centres undefined) | 0.0714 µM | 14 µM |
| COc1cc(-c2nn(-c3cccc(NC(=O)c4ccccc4)c3)cc2-c2ccncc2)ccc1Cl | 0.457 µM | > 100 µM |
| O=C1CSC(=S)N1/N=C/c1ccc(Cl)c([N+](=O)[O-])c1 |  | > 100 µM |
| CCCCCCCCCCSC(=N)N (tested in a mixture with another compound) | 2.53 µM | 6.31 µM |
| CCOc1ccc(NC2=CC(=O)C(=O)c3ccccc32)cc1 |  | 26.2 µM |
| COc1cc2c(cc1OC)-c1cc(OC)c(OC)cc1C(CN(C)C)C2 (centres undefined) | > 10 µM | > 10 µM |
| O=C1c2ccccc2C(=O)c2c(/C=C\N3CCCCC3)ccnc21 |  | 52.6 µM |
| O=C(NC1CCCCC1)NS(=O)(=O)c1ccc(N2N=C3c4ccccc4CC3C2c2ccc(Cl)cc2)cc1 (centres undefined) | 3.57 µM | 22.6 µM |
| c1ccc(-c2n(Cc3ccc4ccccc4n3)cc[n+]2Cc2ccc3ccccc3c2)cc1 | 0.288 µM | 1.52 µM |
| C[C@@H]1CC[C@H]2C(C)(C)[C@H]3C[C@@]12CC[C@@]3(C)O |  | 53.6 µM |
| O=C(Nc1cccc(C(F)(F)F)c1)Nc1cccc(C(F)(F)F)c1 | 0.382 µM | 5.6 µM |
| CC(C)(C)[Si](C)(C)OC1[C@@H](O[Si](C)(C)C(C)(C)C)[C@@H](CNC(=O)NC(=O)C(F)(F)F)O[C@H]1n1cnc2c(NC(=O)Nc3ccccc3)ncnc21 (some centres undefined) | 7.11 µM | 28.6 µM |
| CC(=C(c1ccc(OCCN2CCCCC2)cc1)c1ccc(OCCN2CCCCC2)cc1)c1ccc(Cl)cc1 | 0.53 µM | 1.19 µM |
| C=C(C)C(=O)O[C@@H]1C[C@@]2(C)O[C@@H]2C[C@H](O)/C(C)=C/[C@H]2OC(=O)C(=C)[C@@H]21 |  | > 100 µM |
| C=CC(=O)Nc1cc(Nc2nccc(-c3cn(C)c4ccccc34)n2)c(OC)cc1N(C)CCN(C)C | 1.95 µM and 1.45 µM | 6.65 µM and 4.08 µM |
| Cc1ccc(-c2nc(N3CCNCC3)c3oc(-c4ccc(C)cc4)nc3n2)cc1 | 2.48 µM | 5.28 µM |
| C=C1C(=O)O[C@H]2[C@H]1CC/C(CNC(=O)c1cc3ccccc3[nH]1)=C\CC[C@@]1(C)O[C@@H]21 | 1.02 µM | 3.88 µM |
| Cc1cc2c(cc1C)[n+](=O)c(C(=O)c1ccccc1)c(C(F)F)n2[O-] | 5.81 µM | 43.9 µM |
| Cc1ccc(NC2=C3CCCCC3OC2=O)cc1 (centres undefined) | 34.5 µM | > 100 µM |
| COc1cc2c(cc1OC)C(Cl)C(c1ccc(F)cc1)=C2Cl (centres undefined) |  | 39.2 µM |
| COc1ccc2ncnc(Nc3ccc(OCc4ccccc4)cc3)c2c1 | 7.58 µM | > 25 µM |
| O=C1c2c(F)c(F)c(F)c(F)c2C(=O)N1c1ccc(F)cc1F | 3.81 µM | 65.4 µM |
| CC(C)[C@@H]1NC(=O)[C@]2(C)CSC(=N2)c2ccnc(c2)CNC(=O)C[C@@H](/C=C/CCS)OC1=O | 1.49 µM | > 27.7 µM |
| OC(c1cc(C(F)(F)F)nc2c(C(F)(F)F)cccc12)C1CCCCN1 (centres undefined) | 3.22 µM | 11.5 µM |
| C/C=C/[C@@H]1O[C@@H]2COC(=O)C2=C[C@@H]1O | 2.55 µM | 7.18 µM |
| COC(=O)/C=C/c1cc(OC(C)=O)c2c(c1)[C@@H](C(=O)OC)[C@H](c1ccc(OC(C)=O)c(OC(C)=O)c1)O2 | 0.049 µM |  |

Tested on: SF-268 CNS
Assay: inhibition of tumour cell growth, NCI panel, 48 h

| Compound | GI50 | TGI |
| --- | --- | --- |
| CC[C@@H](c1ccc(O)c(O)c1)[C@@H](CC)c1ccc(O)c(O)c1 | 17.9 µM | 37.5 µM |
| O=C1OCC2=C1C(c1cccc(Br)c1)c1cc3c(cc1N2CCO)OCCO3 (centres undefined) | 0.0766 µM | 8.38 µM |
| COc1cc(-c2nn(-c3cccc(NC(=O)c4ccccc4)c3)cc2-c2ccncc2)ccc1Cl | 0.596 µM | > 54.8 µM |
| O=C1CSC(=S)N1/N=C/c1ccc(Cl)c([N+](=O)[O-])c1 |  | 40.2 µM |
| CCCCCCCCCCSC(=N)N (tested in a mixture with another compound) | 4.01 µM | 17.6 µM |
| CCOc1ccc(NC2=CC(=O)C(=O)c3ccccc32)cc1 |  | 22.4 µM |
| COc1cc2c(cc1OC)-c1cc(OC)c(OC)cc1C(CN(C)C)C2 (centres undefined) | > 10 µM | > 10 µM |
| O=C1c2ccccc2C(=O)c2c(/C=C\N3CCCCC3)ccnc21 |  | 39.9 µM |
| O=C(NC1CCCCC1)NS(=O)(=O)c1ccc(N2N=C3c4ccccc4CC3C2c2ccc(Cl)cc2)cc1 (centres undefined) | 6.78 µM | 34.9 µM |
| c1ccc(-c2n(Cc3ccc4ccccc4n3)cc[n+]2Cc2ccc3ccccc3c2)cc1 | 1.91 µM | 5.5 µM |
| C[C@@H]1CC[C@H]2C(C)(C)[C@H]3C[C@@]12CC[C@@]3(C)O |  | > 100 µM |
| O=C(Nc1cccc(C(F)(F)F)c1)Nc1cccc(C(F)(F)F)c1 | 2.1 µM | 10.9 µM |
| CC(C)(C)[Si](C)(C)OC1[C@@H](O[Si](C)(C)C(C)(C)C)[C@@H](CNC(=O)NC(=O)C(F)(F)F)O[C@H]1n1cnc2c(NC(=O)Nc3ccccc3)ncnc21 (some centres undefined) | 6.22 µM | 13.4 µM |
| CC(=C(c1ccc(OCCN2CCCCC2)cc1)c1ccc(OCCN2CCCCC2)cc1)c1ccc(Cl)cc1 | 0.436 µM | 0.873 µM |
| C=C(C)C(=O)O[C@@H]1C[C@@]2(C)O[C@@H]2C[C@H](O)/C(C)=C/[C@H]2OC(=O)C(=C)[C@@H]21 |  | > 100 µM |
| C=CC(=O)Nc1cc(Nc2nccc(-c3cn(C)c4ccccc34)n2)c(OC)cc1N(C)CCN(C)C | 1.95 µM and 1.87 µM | 7.02 µM and > 10 µM |
| Cc1ccc(-c2nc(N3CCNCC3)c3oc(-c4ccc(C)cc4)nc3n2)cc1 | 2.25 µM | 5.61 µM |
| C=C1C(=O)O[C@H]2[C@H]1CC/C(CNC(=O)c1cc3ccccc3[nH]1)=C\CC[C@@]1(C)O[C@@H]21 | 1.6 µM | 3.67 µM |
| Cc1cc2c(cc1C)[n+](=O)c(C(=O)c1ccccc1)c(C(F)F)n2[O-] | 13 µM | > 100 µM |
| Cc1ccc(NC2=C3CCCCC3OC2=O)cc1 (centres undefined) | > 100 µM | > 100 µM |
| COc1cc2c(cc1OC)C(Cl)C(c1ccc(F)cc1)=C2Cl (centres undefined) |  | 39.5 µM |
| COc1ccc2ncnc(Nc3ccc(OCc4ccccc4)cc3)c2c1 | 13.9 µM | > 25 µM |
| O=C1c2c(F)c(F)c(F)c(F)c2C(=O)N1c1ccc(F)cc1F | 10.1 µM | 27.8 µM |
| CC(C)[C@@H]1NC(=O)[C@]2(C)CSC(=N2)c2ccnc(c2)CNC(=O)C[C@@H](/C=C/CCS)OC1=O | 0.421 µM | > 100 µM |
| OC(c1cc(C(F)(F)F)nc2c(C(F)(F)F)cccc12)C1CCCCN1 (centres undefined) | 3.57 µM | 13.1 µM |
| C/C=C/[C@@H]1O[C@@H]2COC(=O)C2=C[C@@H]1O | 24.2 µM | 63.9 µM |
| COC(=O)/C=C/c1cc(OC(C)=O)c2c(c1)[C@@H](C(=O)OC)[C@H](c1ccc(OC(C)=O)c(OC(C)=O)c1)O2 | 0.301 µM | 57.5 µM |

Tested on: SK-OV-3 ovarian
Assay: inhibition of tumour cell growth, NCI panel, 48 h

| Compound | GI50 | TGI |
| --- | --- | --- |
| CC[C@@H](c1ccc(O)c(O)c1)[C@@H](CC)c1ccc(O)c(O)c1 | 29.4 µM | 77.9 µM |
| O=C1OCC2=C1C(c1cccc(Br)c1)c1cc3c(cc1N2CCO)OCCO3 (centres undefined) | 0.067 µM | 4.04 µM |
| COc1cc(-c2nn(-c3cccc(NC(=O)c4ccccc4)c3)cc2-c2ccncc2)ccc1Cl | 1.19 µM | > 100 µM |
| O=C1CSC(=S)N1/N=C/c1ccc(Cl)c([N+](=O)[O-])c1 |  | > 100 µM |
| CCCCCCCCCCSC(=N)N (tested in a mixture with another compound) | 11.8 µM | 24.8 µM |
| CCOc1ccc(NC2=CC(=O)C(=O)c3ccccc32)cc1 |  | 24.9 µM |
| COc1cc2c(cc1OC)-c1cc(OC)c(OC)cc1C(CN(C)C)C2 (centres undefined) | > 10 µM | > 10 µM |
| O=C1c2ccccc2C(=O)c2c(/C=C\N3CCCCC3)ccnc21 |  | 50.9 µM |
| O=C(NC1CCCCC1)NS(=O)(=O)c1ccc(N2N=C3c4ccccc4CC3C2c2ccc(Cl)cc2)cc1 (centres undefined) | 24.5 µM | > 100 µM |
| c1ccc(-c2n(Cc3ccc4ccccc4n3)cc[n+]2Cc2ccc3ccccc3c2)cc1 | 1.8 µM | 4.69 µM |
| C[C@@H]1CC[C@H]2C(C)(C)[C@H]3C[C@@]12CC[C@@]3(C)O |  | > 100 µM |
| O=C(Nc1cccc(C(F)(F)F)c1)Nc1cccc(C(F)(F)F)c1 | 1.89 µM | 6.34 µM |
| CC(C)(C)[Si](C)(C)OC1[C@@H](O[Si](C)(C)C(C)(C)C)[C@@H](CNC(=O)NC(=O)C(F)(F)F)O[C@H]1n1cnc2c(NC(=O)Nc3ccccc3)ncnc21 (some centres undefined) | 8.74 µM | 15.7 µM |
